The test system of one test is SOS1. The test can be described thus: Photo-responsive labeling within live cells, streptavidin bead immunoprecipitation of biotinylated proteins, Western blot with anti-SOS1 antibody. The class given is cell-based, human. Conditions: KRAS (G12DHaloTag/+) protein reporter cells with photocatalyst, labeling partner and irradiation; no distinct band in control cells HD-103-037 and HD-PAR-006. Here is the method: (§1) Initially, reagents were prepared. An Ir—Cl photocatalyst master stock solution was prepared at 10 mM in 100% DMSO. The specific Ir—Cl photocatalyst used in this example was the photocatalyst prepared in accordance with Example 2. To create a working solution for the Ir—Cl catalyst, a portion of the Ir—Cl catalyst master stock solution was diluted in 1×DPBS, such that the final Ir—Cl catalyst concentration was 10 μM and the DMSO concentration was 0.1%. A labeling agent master stock was also prepared, having a 25 mM concentration in 100% DMSO. The particular labeling agent used was the one prepared in accordance with Example 1. To create a working solution for the labeling agent, a portion of the labeling agent master stock solution was diluted in 1×DPBS, such that the final concentration of labeling agent was 250 μM and the DMSO concentration was 1%.
(§2) A human KRAS (G12DHaloTag®/+) cell line (HD-103-021, Horizon Discovery) with protein reporter was grown to 80-90% confluence. Cells were harvested and pelleted down by centrifuging at 1000 g, for 5 minutes at 4° C. (Eppendorf Centrifuge 5427 R). Supernatant was discarded and the cell pellet was resuspended in ice cold 1×DPBS (Gibco™) and mixed. Subsequently, cells were again pelleted down by centrifuging at 1000 g, for 5 minutes at 4° C. Supernatant was discarded and fresh ice cold 1×DPBS was added to the pellet and mixed. […]
For orientation: In western blotting, separated proteins are transferred to a membrane and probed.

A further test has as its system Halotag-KRAS(G12D). The test can be described thus: Halotag chaser assay (TAMRA-Cl) for Ir-photocatalyst cell permeability, fluorescent Western blot. It is filed as cell-based, human. Here is the method:
Photo-responsive labeling within cells was carried out as described similar to the procedure as described in Example 11. An Ir-photocatalyst master stock solution was prepared at 10 mM or 5 mM in 100% DMSO. KRAS (G12DHaloTag®/+) cells (HD-103-021, Horizon Discovery) were grown to 90% confluency in 6-well cell culture dishes using phenol-free RPMI1640 media (Gibco™). […] The cells were incubated for 1 or 2 hours at 37° C. The media was then aspirated and cells were gently washed twice with 2 mL fresh RPMI 1640, with an incubation of 10 minutes per wash at 37° C. TAMRA-Cl fluorescent dye (Promega, 68251) was diluted with OptiMEM to a 5 μM working solution. 0.8 mL of the working dye solution was added to the cells, and allowed to incubate for 15 minutes at 37° C. The cells were gently washed twice with 2 mL cold DPBS, aspirated, then added 200 μL RIPA supplemented with protease-phosphatase inhibitor (Halt™ Protease and Phosphatase Inhibitor Cocktail (100×)) and mixed briefly. The cell lysate was collected into 1.5 mL tubes. The cell lysate was sonicated using a probe-sonicator (SONICS vibra-cell Fisher Scientific) with 15 s on, 10 s off, at 30% amplitude for 3 cycles. The cell lysate was centrifuged at 18,000 g at 4° C. for 20 minutes. […] Cell lysates were processed and analyzed by fluorescent Western blot with anti-TAMRA and anti-β-Actin (for normalization) antibodies. […]

Another test deals with PI3 Kinase P110α. The test can be described thus: Photo-responsive labeling within live cells, HALO-tag immunoprecipitation, Western blot with Anti-PI3k antibody. As to conditions: labeling agent 250 μM, photocatalyst 10 μM, irradiation 450 nm 10 minutes, cell line 021. It is filed as cell-based, human. Here is the method: as §1, §2
In test [1] the test system is bovine serum albumin (BSA). Nature of the test: Catalyst-dependent biotinylation of bovine serum albumin, fluorescent Western blot with anti-biotin antibody. Conditions: labeling reagent WH8 100 uM, BSA 10 uM, catalyst 5 μM and 10 μM, 5 minutes irradiation at 450 nm; no band without irradiation. It is filed as biochemical. The protocol:
Photocatalyst was combined with diazirine labeling compounds 8 or 9 and BSA in DPBS to yield reaction mixtures with 200 uL total solution volume. BSA concentration was 10 uM; diazirine labeling compound was fixed as 100 uM; the final catalyst concentration was set as 5 uM and 10 uM respectively. These samples were then either placed in the dark or irradiated with visible (450 nm) light in a M2 photoreactor for 5 minutes at 100% intensity. 60 uL samples were then removed, combined with 20 μL of 4× reducing SDS-Laemmli buffer (with 1:10 1 M DTT), mixed and heated at 95° C. for 5 minutes. 15 μL of each sample was then analyzed by Fluorescent western blot.
The sample was loaded into a 4-20% Tris-Glycine gel (Bio-Rad). Gel was run at 120V for 80 minutes or until the dye front reaches the end of the gel. Proteins were transferred from gel to nitrocellulose membrane using the iBlot 2 semi-dry Transfer apparatus. The membrane was used to detect total protein for normalization which follow the manufacturer's manual (Revert™ 700 Total Protein Stain, LI-COR). After that, the membrane rinsed once with TBST and blocked with h Intercept® Blocking Buffer for 1 hour at RT with gentle shaking. After blocking, membrane was washed with TBST and requisite antibody was added (1:1000) and kept for overnight at 4° C. on a shaker. […]

For the next test, the system named is ikaros (IKZF1). The test can be described thus: Western blot of IKZF1 in lysates of HALO.CRBN Jurkat cells exposed to pomalidomide or lenalidomide. The class given is cell-based. As to conditions: lanes, HALO.CRBN Jurkat cell lysates, compared with control or 1 μM pomalidomide lanes. From the text: A stable cell line, using Jurkat cells, was created where native cereblon (CRBN) was knocked out and a fusion of HaloTag protein and CRBN was expressed (referred to herein as “the HALO.CRBN Jurkat cell line”). […] The gel was stained using mouse anti-IKZF1 antibody. The dilution was 1:1000 and the exposure was about 10 seconds.

Consider `Cc1ccnc(-c2cc(CCC(=O)NCCOCCOCCOCCOCCCCCCCl)ccn2)c1.Fc1cc(F)c(-c2ccc(C(F)(F)F)cn2)[c]([Ir+][c]2cc(F)cc(F)c2-c2ccc(C(F)(F)F)cn2)c1` [IR1], for which the “SOS1 band after streptavidin IP (FIG. 5F)” value with SOS1 is listed as “distinct SOS1 band observed”. For the same compound, the “binding to the Halotag (Halo-chaser assay, anti-TAMRA)” value was “a little less binding to the Halo tag” in the test with Halotag-KRAS(G12D) (FIG. 21A, 1 hour treatment, 5 μM and 10 μM photocatalyst, KRAS (G12DHaloTag/+) cells, compared to DMSO control); “majority binding” with Halotag-KRAS(G12D) (FIG. 21B, 5 μM photocatalyst). Besides, the “PI3 Kinase P110α band after HALO-tag IP (FIG. 4A)” value in the test on PI3 Kinase P110α is “distinct band of PI3 Kinase P110α”.

With `[N-]=[N+]=Nc1ccc(C(=O)NCCOCCOCCOCCNC(=O)CCCC[C@@H]2SC[C@@H]3NC(=O)N[C@@H]32)cc1` [WH8, 4-azido-N-(13-oxo-17-((3aS,4S,6aR)-2-oxohexahydro-1H-thieno[3,4-d]imidazol-4-yl)-3,6,9-trioxa-12-azaheptadecyl)benzamide], the “biotinylation of BSA (anti-biotin fluorescent Western blot)” value in test [1] is reported as “biotinylated BSA bands”. The “SOS1 band after streptavidin IP (FIG. 5F)” value in the test on SOS1 is reported as “distinct SOS1 band observed”. In addition, the “PI3 Kinase P110α band after HALO-tag IP (FIG. 4A)” value in the test on PI3 Kinase P110α was “distinct band of PI3 Kinase P110α”.

As for `Nc1cccc2c1C(=O)N(C1CCC(=O)NC1=O)C2=O` (centres unmarked) [pomalidomide], the “IKZF1 level in Western blot (anti-IKZF1)” value in the test with ikaros (IKZF1) is on record as “observably less IKZF1”.

(Values after US20250362302A1, “INTRACELLULAR LIGATION OF PHOTOCATALYSTS FOR PHOTO-RESPONSIVE, PROBE-MEDIATED PROTEIN LABELING” (Seed Therapeutics US, Inc., priority 2022, published 2025).)
